According to patent US20230073368A1, “THERAPY OF RAS-DEPENDENT CANCERS” (Turun Yliopisto, priority 2020, published 2023):

Tested on: PANC-1 cells
Experiment: Proliferation assay of SHANK3 silenced PANC-1 cells treated with ERK and MEK inhibitors
Type: cell-based, human
Settings: dose-dependent, 7.8 nM-8 μM gradient
Method: Proliferation Assay of SHANK3 Silenced PANC-1 Cells Treated with ERK and MEK Inhibitors
Cells were seeded on a 96-well plate (2000-5000 cells/well) a day before transfection and silenced the next day when cell confluence was approximately 30%. Next day after silencing, medium was changed to full medium containing DMSO (control), Trametinib, Selumetinib (ADZ6244) or selective ERK1/2 inhibitor (SCH772984) in dose-dependent manner (concentration gradient: 0, 7.8 nM, 15.5 nM 31.3 nM 62.5 nM, 125 nM, 250 nM, 500 nM, 1 μM, 2 μM, 4 μM and 8 μM). Proliferation was measured using IncuCyte S3 as described above.

O=C(Nc1ccc2[nH]nc(-c3ccncc3)c2c1)[C@@H]1CCN(CC(=O)N2CCN(c3ccc(-c4ncccn4)cc3)CC2)C1 [SCH772984]
rescue of cell viability lost by SHANK3-silencing: abolished a loss of cell viability induced by SHANK3-silencing
